pEC50: −log10 of the molar value. Read-outs that look alike come from different tables or passages of the source.
Assays:
[1] = tested on: caspase cascade, PC-3 cells; assay: Known antineoplastic compounds as caspase cascade activators (Example 92), PC-3; type: cell-based, human; settings: 10 μM final, 24 h; ratio of net RFU to control; ratio around 1 = not an efficient activator
Experimental: (§8) An aliquot of 45 μl of cells was added to a well of a 96-well microtiter plate containing 5 μl of a 10% DMSO in RPMI-1640 media solution containing 100 μM of test compounds (10 μM final). An aliquot of 45 μl of cells was added to a well of a 96-well microtiter plate containing 5 μl of a 10% DMSO in RPMI-1640 media solution without test compound as the control sample. The samples were mixed by agitation and then incubated at 37° C. for 24 h in a 5% CO2-95% humidity incubator. After incubation, the samples were removed from the incubator and 50 μl of a solution containing 20 μM of N-(Ac-DEVD)-N′-ethoxycarbonyl-R110 fluorogenic substrate (SEQ ID NO:1) (Cytovia, Inc.), 20% sucrose (Sigma), 20 mM DTT (Sigma), 200 mM NaCl (Sigma), 40 mM Na PIPES buffer pH 7.2 (Sigma), and 500 μg/ml lysolecithin (Calbiochem) was added. The samples were mixed by agitation and incubated for 3 h at room temperature. Using a fluorescent plate reader (Model 1420 Wallac Instruments), an initial reading (T=0) was made approximately 1-2 min. after addition of the substrate solution, employing excitation at 485 nm and emission at 530 nm, to determine the background fluorescence of the control sample. After the 3 h incubation, the samples were read for fluorescence as above (T=3 h).
(§9) The Relative Fluorescence Unit values (RFU) were used to calculate the sample readings as follows:
(§10) The activity in caspase cascade activation was determined by the ratio of the net RFU value for test compounds to that of control samples.

[2] = tested on: caspase cascade, T-47D cells; assay: Known antineoplastic compounds as caspase cascade activators (Example 92), T-47D; type: cell-based, human; settings: 10 μM final, 24 h; ratio of net RFU to control; ratio around 1 = not an efficient activator
Experimental: as §8, §9, §10

[3] = tested on: caspase cascade, human prostate cancer cell line PC-3; assay: Caspase cascade activation assay (Example 90), PC-3; type: cell-based; settings: 24 h incubation; for pEC50: Homo sapiens, sigmoidal dose-response, read-out: PC-3 EC50 (caspase activation potency)
Experimental: (§1) Human breast cancer cell lines T-47D and ZR-75-1, human prostate cancer cell line PC-3, human leukemia cancer cell line HL-60 and human non-transformed fibroblast cell line MRC-5 cells were grown according to media component mixtures designated by The American Type Culture Collection+10% FCS (Life Technologies, Inc.), in a 5% CO2-95% humidity incubator at 37° C. T-47D, ZR-75-1 and PC-3 cells were maintained at a cell density between 30 and 80% confluency and for HL-60 at a cell density of 0.1 to 0.6×10^6 cells/m. Cells were harvested at 600× g and resuspended at 0.65×10^6 cells/ml into appropriate media +10% FCS. […] The samples were mixed by agitation and incubated at room temperature.
(§2) The EC50 (nM) was determined by a sigmoidal dose-response calculation (Prism 2.0, GraphPad Software Inc.).

T-47D cells = assay: Inhibition of cell proliferation (GI50) and cell death (LC50), T-47D; type: cell-based; settings: Homo sapiens, T47D, 48 h; for GI50: read-out: GI50 (dose for 50% inhibition of cell proliferation); for CC50: read-out: LC50 (dose for 50% cell death)
Experimental: (§3) T47D, ZR-75-1, PC-3, human prostate cancer cell line DU-145, human non-small cell lung cancer cell line A-549, human small cell lung cancer cell line SHP-77, HL-60 and MRC-5 cells were grown and harvested as in Example 90. […] The samples were mixed by agitation and incubated at 37° C. for 2-4 h in a 5% CO2-95% humidity incubator. […] This determines the possible background absorbance of the test compounds. No absorbance for gambogic acid or its analogs or derivatives was found at 490 nm. After the 2-4 h incubation, the samples were read for absorbance as above (ATest).
(§4) Baseline for GI50 (dose for 50% inhibition of cell proliferation) and LC50 (dose for 50% cell death) of initial cell numbers was determined by adding an aliquot of 90 μl of cells or 90 μl of media, respectively, to wells of a 96-well microtiter plate containing 10 μl of a 10% DMSO in RPMI-1640 media solution. […] The samples were mixed by agitation and incubated at 37° C. for 2-4 h in a 5% CO2-95% humidity incubator. Absorbance was read as above, (AT=0) defining absorbance for initial cell number used as baseline in GI50 determinations and (Amin) defining absorbance for media alone used as baseline in LC50 determinations.
(§5) GI50 (dose for 50% inhibition of cell proliferation)
(§6) LC50 (dose for 50% cell death)
(§7) 50=100×[(ATest−Amin)/(AT=0−Amin)]

[4] = tested on: caspase cascade, human leukemia cancer cell line HL-60; assay: Caspase cascade activation assay (Example 90), HL-60; type: cell-based; settings: Homo sapiens, HL-60; 24 h incubation; sigmoidal dose-response; read-out: HL-60 EC50 (caspase activation potency)
Experimental: as §1, §2

caspase cascade = assay: Caspase cascade activation assay (Example 90), MRC-5; type: cell-based, human; settings: human
Experimental: as §1, §2

[5] = Inhibition of cell proliferation (GI50) and cell death (LC50), MRC-5; type: cell-based; settings: human
Experimental: as §3, §4, §5, §6, §7

MRC-5 cells = assay: as above; type: cell-based; settings: Homo sapiens, MRC5; MRC-5, 48 h; read-out: GI50 (dose for 50% inhibition of cell proliferation)
Experimental: as §3, §4, §5, §6, §7

[6] = tested on: caspase cascade, human breast cancer cell line ZR-75-1; assay: Caspase cascade activation assay (Example 90), ZR-75-1; type: cell-based; settings: Homo sapiens, ZR-75-1; 24 h incubation; sigmoidal dose-response; read-out: ZR-75-1 EC50 (caspase activation potency)
Experimental: as §1, §2

PC-3 cells = assay: Inhibition of cell proliferation (GI50) and cell death (LC50), PC-3; type: cell-based
Experimental: as §3, §4, §5, §6, §7

[7] = tested on: human prostate cancer cell line DU-145; assay: Inhibition of cell proliferation (GI50) and cell death (LC50), DU-145; type: cell-based
Experimental: as §3, §4, §5, §6, §7

[8] = tested on: caspase cascade, human breast cancer cell line T-47D; assay: Caspase cascade activation assay (Example 90), T-47D; type: cell-based; settings: 24 h incubation; for pEC50: Homo sapiens, T47D, sigmoidal dose-response, read-out: T-47D EC50 (caspase activation potency)
Experimental: as §1, §2

ZR-75-1 cells = assay: Inhibition of cell proliferation (GI50) and cell death (LC50), ZR-75-1; type: cell-based; settings: Homo sapiens, ZR-75-1, 48 h
Experimental: as §3, §4, §5, §6, §7

[9] = tested on: human non-small cell lung cancer cell line A-549; assay: Inhibition of cell proliferation (GI50) and cell death (LC50), A-549; type: cell-based; settings: Homo sapiens
Experimental: as §3, §4, §5, §6, §7

HL-60 cells = assay: Inhibition of cell proliferation (GI50) and cell death (LC50), HL-60; type: cell-based; settings: Homo sapiens, HL-60, 48 h
Experimental: as §3, §4, §5, §6, §7

[10] = tested on: human small cell lung cancer cell line SHP-77; assay: Inhibition of cell proliferation (GI50) and cell death (LC50), SHP-77; type: cell-based; settings: Homo sapiens
Experimental: as §3, §4, §5, §6, §7

KB-V1 cell line = settings: cited from earlier work
KB cell line = settings: cited from earlier work
[11] = Homo sapiens, PC-3, 48 h; read-out: GI50 (dose for 50% inhibition of cell proliferation)
[12] = Homo sapiens, DU-145, 48 h; read-out: GI50 (dose for 50% inhibition of cell proliferation)
[13] = ratio of net RFU of test compound to control, 0.16 to 10 μM
[14] = Homo sapiens, PC-3, 48 h, read-out: LC50 (dose for 50% cell death)
[15] = Homo sapiens, DU-145, 48 h, read-out: LC50 (dose for 50% cell death)
[16] = read-out: LC50 (dose for 50% cell death)
[17] = read-out: GI50 (dose for 50% inhibition of cell proliferation)
[18] = reported by Lin et al., Magn. Reson. Chem. 31:340-347 (1993)

## O=c1[nH]cc(F)c(=O)[nH]1 [5-fluorouracil]
[1]
  Caspase cascade activation ratio, PC-3: 0.7
[2]
  Caspase cascade activation ratio, T-47D: 0.8

## CC[C@@]1(O)C(=O)OCc2c1cc1n(c2=O)Cc2cc3ccccc3nc2-1 [Camptothecin]
[1]
  Caspase cascade activation ratio, PC-3: 0.6
[2]
  Caspase cascade activation ratio, T-47D: 0.7

## COc1cccc2c1C(=O)c1c(O)c3c(c(O)c1C2=O)C[C@@](O)(C(=O)CO)C[C@@H]3O[C@H]1C[C@H](N)[C@H](O)[C@H](C)O1 [Doxorubicin]
[1]
  Caspase cascade activation ratio, PC-3: 1.1
[2]
  Caspase cascade activation ratio, T-47D: 1.3

## COc1cc([C@@H]2c3cc4c(cc3[C@@H](O[C@@H]3O[C@@H]5CO[C@@H](C)O[C@H]5[C@H](O)[C@H]3O)[C@H]3COC(=O)[C@H]23)OCO4)cc(OC)c1O [Etoposide]
[1]
  Caspase cascade activation ratio, PC-3: 0.8
[2]
  Caspase cascade activation ratio, T-47D: 1.0

## CC(C)=CCC/C(C)=C/Cc1c(O)c(CC=C(C)C)c2c(c1O)C(=O)C1=CC3CC4C(C)(C)OC(C/C=C(/C)C(=O)O)(C3=O)C14O2 (stereo not drawn) [Example 2, Gambogenic Acid]
[3]
  pEC50: 5.87
T-47D cells; T-47D
  GI50: 500 nM
  CC50: 500 nM
[4]
  pEC50: 6.47
Caspase cascade; 24 h incubation, sigmoidal dose-response, read-out: MRC-5 EC50 (caspase activation potency)
  pEC50: 5.90
[5]; MRC-5, 48 h, read-out: LC50 (dose for 50% cell death)
  CC50: 5000 nM
MRC-5 cells
  GI50: 500 nM
[6]
  pEC50: 5.94
PC-3 cells; [11]
  GI50: 3000 nM
PC-3 cells; Homo sapiens, PC-3, 48 h; read-out: LC50 (dose for 50% cell death)
  CC50: 5000 nM
[7]; [12]
  GI50: 600 nM
[7]; Homo sapiens, DU-145, 48 h; read-out: LC50 (dose for 50% cell death)
  CC50: 5000 nM
[8]
  pEC50: 6.51

## CC(C)=CCC/C(C)=C/Cc1c(O)c(CC=C(C)C)c2c(c1O)C(=O)C1=CC3CC4C(C)(C)OC(C/C=C(/C)C=O)(C3=O)C14O2 (stereo not drawn) [Example 3, Gambogenin]
[3]; [13]
  PC-3 Ratio (caspase activity): 2.9
T-47D cells
  CC50: 500 nM
T-47D cells; T-47D
  GI50: 500 nM
[5]
  CC50 at 48 h: 5000 nM
MRC-5 cells
  GI50: 3000 nM
PC-3 cells; [14]
  CC50: 5000 nM
PC-3 cells; [11]
  GI50: 5000 nM
[7]; [15]
  CC50: 5000 nM
[7]; [12]
  GI50: 2000 nM
[8]; [13]
  T-47D Ratio (caspase activity): 7.0

## COC(=O)/C(C)=C\CC12OC(C)(C)C3CC(C=C4C(=O)c5c(OC)c6c(c(CC=C(C)C)c5OC431)OC(C)(CCC=C(C)C)C=C6)C2=O (stereo not drawn) [Example 6, Methyl-6-methoxy-gambogate]
ZR-75-1 cells; [16]
  CC50: 500 nM
ZR-75-1 cells; [17]
  GI50: 400 nM
[3]
  pEC50: 5.30
T-47D cells
  CC50: 80 nM
T-47D cells; T-47D
  GI50: 50 nM
[9]; A549, 48 h, read-out: LC50 (dose for 50% cell death)
  CC50: 900 nM
[9]; A549, A-549, 48 h, read-out: GI50 (dose for 50% inhibition of cell proliferation)
  GI50: 500 nM
[5]
  CC50 at 48 h: 500 nM
MRC-5 cells
  GI50: 500 nM
HL-60 cells; [16]
  CC50: 800 nM
HL-60 cells; [17]
  GI50: 100 nM
PC-3 cells; [14]
  CC50: 500 nM
PC-3 cells; [11]
  GI50: 500 nM
[7]; [15]
  CC50: 900 nM
[7]; [12]
  GI50: 500 nM
[10]; SHP77, 48 h, read-out: LC50 (dose for 50% cell death)
  CC50: 500 nM
[10]; SHP77, SHP-77, 48 h, read-out: GI50 (dose for 50% inhibition of cell proliferation)
  GI50: 500 nM
[8]
  pEC50: 5.55

## CC(C)=CCCC1(C)C=Cc2c(O)c3c(c(CC=C(C)C)c2O1)OC12C(=CC4CC1C(C)(C)OC2(C/C=C(/C)C(=O)N1CCN(C)CC1)C4=O)C3=O (stereo not drawn) [Example 9, Gambogyl (4-Methylpiperazine)]
[3]
  pEC50: 5.23
Caspase cascade
  EC50 at 24 h: 1900 nM
[6]
  pEC50: 5.69
[8]
  pEC50: 6.00

## CC(C)=CCCC1(C)C=Cc2c(O)c3c(c(CC=C(C)C)c2O1)OC12C(=CC4CC1C(C)(C)OC2(C/C=C(\C)C(=O)O)C4=O)C3=O (stereo not drawn) [Example 18, Isogambogic Acid]
KB-V1 cell line
  Cytotoxicity against KB-V1 cell line: cytotoxic
KB cell line
  Cytotoxicity against KB cell line: cytotoxic

## CN(Cc1cnc2nc(N)nc(N)c2n1)c1ccc(C(=O)N[C@@H](CCC(=O)O)C(=O)O)cc1 [Methotrexate]
[1]
  Caspase cascade activation ratio, PC-3: 0.7
[2]
  Caspase cascade activation ratio, T-47D: 0.8

## CC(=O)O[C@H]1C(=O)[C@@]2(C)[C@H]([C@H](OC(=O)c3ccccc3)[C@]3(O)C[C@H](OC(=O)[C@H](O)[C@@H](NC(=O)c4ccccc4)c4ccccc4)C(C)=C1C3(C)C)[C@]1(OC(C)=O)CO[C@@H]1C[C@@H]2O [Taxol]
[1]
  Caspase cascade activation ratio, PC-3: 0.7
[2]
  Caspase cascade activation ratio, T-47D: 0.9

## CC[C@]1(O)C[C@@H]2CN(CCc3c([nH]c4ccccc34)[C@@](C(=O)OC)(c3cc4c(cc3OC)N(C)[C@H]3[C@@](O)(C(=O)OC)[C@H](OC(C)=O)[C@]5(CC)C=CCN6CC[C@]43[C@@H]65)C2)C1 [Vinblastine]
[1]
  Caspase cascade activation ratio, PC-3: 0.8
[2]
  Caspase cascade activation ratio, T-47D: 0.9

## CC(C)=CCc1c2c(c(O)c3c1OC14C(=CC5CC1C(C)(C)OC4(C/C=C(\C)CO)C5=O)C3=O)C=CC(C)(C)O2 (stereo not drawn) [isomorellinol, reference compound]
KB-V1 cell line; [18]
  Cytotoxicity against KB-V1 cell line: cytotoxic
KB cell line; [18]
  Cytotoxicity against KB cell line: cytotoxic
